# Measured values: patent publication US4153686A, “Process for the preparation of glucoproteins as well as the use thereof” (priority 1976, dated 1979)
# Several values for one entry are separate records, joined by “and”; a condition that tells them apart may be missing. Identical values can stand only once. Like-named read-outs stand apart in the source and are kept apart here.
# How the values were obtained:
# [1] = test system: strept. faecalis ATCC 19433; experiment: Bactericidal activity in vitro, cylinder test (Table 1); format: cell-based; settings: Enterococcus faecalis, ATCC19433; 18 h at 37° C., average of three individual measurements; read-out: Bactericidal action (MIC)
# [2] = test system: stapyloc. aur. ATCC 6538 P (Penicillinase forming substance); experiment: as above; format: cell-based; settings: 18 h at 37° C., average of three individual measurements
# [3] = test system: stapyloc. aur. ATCC 11522; experiment: as above; format: cell-based; settings: 18 h at 37° C., average of three individual measurements; read-out: Bactericidal action (MIC)
# [4] = test system: strept. pneumon. ATCC 6301; experiment: as above; format: cell-based; settings: 18 h at 37° C., average of three individual measurements; read-out: Bactericidal action (MIC)
# aerobacter aeroges = experiment: Bactericidal MIC-values, 50 strains (Table 2); format: cell-based; settings: of 50 strains; MIC steps 2000 to 0.0002 γ/ml, counts in descending MIC order
# [5] = test system: strains which form Penicillinase; experiment: Bactericidal activity against penicillinase-forming strains (statement); format: cell-based; settings: ampicillin alone
# [6] = test system: staphyloc. aur. NCTC 6571; experiment: Bactericidal activity in vitro, cylinder test (Table 1); format: cell-based; settings: 18 h at 37° C., average of three individual measurements; read-out: Bactericidal action (MIC)
# [7] = test system: staphyl. aur. b, Penicillinase-forming substance; experiment: Bactericidal MIC-values, 50 strains (Table 2); format: cell-based; settings: of 50 strains; MIC steps 2000 to 0.0002 γ/ml, counts in descending MIC order
# [8] = test system: strept. faecalis ATCC 8043; experiment: Bactericidal activity in vitro, cylinder test (Table 1); format: cell-based; settings: Enterococcus faecalis, ATCC8043; 18 h at 37° C., average of three individual measurements; read-out: Bactericidal action (MIC)
# psuedomonas aeruginosa = experiment: Bactericidal MIC-values, 50 strains (Table 2); format: cell-based; settings: of 50 strains; MIC steps 2000 to 0.0002 γ/ml, counts in descending MIC order
# [9] = test system: proteus mirabilis b, Penicillinase-forming substance; experiment: Bactericidal MIC-values, 50 strains (Table 2); format: cell-based; settings: of 50 strains; MIC steps 2000 to 0.0002 γ/ml, counts in descending MIC order
# [10] = test system: escherichia coli NCTC 10418; experiment: Bactericidal activity in vitro, cylinder test (Table 1); format: cell-based; settings: NCTC10418, 18 h at 37° C., average of three individual measurements, read-out: Bactericidal action (MIC)
# [11] = test system: strept. faecalis ATCC 10541; experiment: as above; format: cell-based; settings: Enterococcus faecalis, ATCC10541; 18 h at 37° C., average of three individual measurements; read-out: Bactericidal action (MIC)
# fungi = experiment: Fungicidal activity (statement); format: cell-based; settings: ampicillin alone
# Protocol: The MIC-values for the fungicidal activity of the combination product were determined according to the provisions of the American Soc. of Clinical Microbiology, Manual of Clinical Microbiology, 2nd Edition (Washington, D.C.).
# [12] = test system: strept. pyogenes ATCC 8668; experiment: Bactericidal activity in vitro, cylinder test (Table 1); format: cell-based; settings: Streptococcus pyogenes, ATCC8668; 18 h at 37° C., average of three individual measurements; read-out: Bactericidal action (MIC)
# h. influencae ATCC 19418 = experiment: as above; format: cell-based; settings: 18 h at 37° C., average of three individual measurements; read-out: Bactericidal action (MIC)
# [13] = test system: ps. aeruginosa NCTC 10662; experiment: as above; format: cell-based; settings: Pseudomonas aeruginosa, NCTC10662; 18 h at 37° C., average of three individual measurements; read-out: Bactericidal action (MIC)
# [14] = test system: strept. pneumon. ATCC 6302; experiment: as above; format: cell-based; settings: 18 h at 37° C., average of three individual measurements; read-out: Bactericidal action (MIC)
# [15] = 0.5 mg Dexam 3 × daily perorally, after 5 days
# [16] = Clinical test of Norfenefrin and Norfenefrin + glucoprotein, blood pressure (Table 6); format: in vivo, patients; settings: 14th day, 3.0 mg Norfenefrin once daily
# [17] = Clinical test of phenylbutazone and phenylbutazone + glucoprotein, BSG (Table 5); format: in vivo, patients; settings: 1.0 g phenylbutazone 3 × daily orally, after 8 days
# [18] = three hours after medication, individual patient
compound,measurement,setting,value
"CC1(C)S[C@@H]2[C@H](NC(=O)[C@H](N)c3ccccc3)C(=O)N2[C@H]1C(=O)O [Ampicillin, D-(2-amino-2-phenylacetamido)-3,3-dimethyl-7-oxo-4-thia-1-azabicyclo-[3,2,0]-heptane-2-carboxylic acid]",MIC,[1],2 µg/mL
same,Bactericidal action (MIC),[2],resistant
same,MIC,[3],0.06 µg/mL
same,MIC,[4],0.06 µg/mL
same,Bactericidal MIC-values: number of strains at each MIC step,aerobacter aeroges,50
same,action against Penicillinase-forming strains,[5],completely ineffective
same,MIC,[6],0.06 µg/mL
same,Bactericidal MIC-values: number of strains at each MIC step,[7],50
same,MIC,[8],2 µg/mL
same,Bactericidal MIC-values: number of strains at each MIC step,psuedomonas aeruginosa,50
same,Bactericidal MIC-values: number of strains at each MIC step,[9],50
same,MIC,[10],8 µg/mL
same,MIC,[11],1 µg/mL
same,fungicidal activity,fungi,no fungicidal activity which can be evaluated in practice
same,MIC,[12],0.03 µg/mL
same,MIC,h. influencae ATCC 19418,0.25 µg/mL
same,MIC,[13],240 µg/mL
same,MIC,[14],0.06 µg/mL
"C[C@@H]1C[C@H]2[C@@H]3CCC4=CC(=O)C=C[C@]4(C)[C@@]3(F)[C@@H](O)C[C@]2(C)[C@@]1(O)C(=O)CO [Dexam, dexamethasone]","ASLO, average",[15]; average of 10 patients,220 i.E.
same,"BSG after 1 h., average",[15]; average of 10 patients,23.5
same,"BSG after 2 h., average",[15]; average of 10 patients,38.8
same,ASLO,[15]; individual patient,200 i.E. and 100 i.E. and 300 i.E.
same,BSG after 1 h.,[15]; individual patient,25 and 20 and 30 and 24 and 22
same,BSG after 2 h.,[15]; individual patient,30 and 35 and 40 and 45 and 50 and 42 and 38 and 36 and 34
NCC(O)c1cccc(O)c1 (centres unmarked) [Norfenefrin],diastolic blood pressure,[16]; [18],70 and 75 and 80
same,systolic blood pressure,[16]; [18],120 and 125 and 130
same,"diastolic blood pressure, average",[16]; average of 10 patients,76.5
same,"systolic blood pressure, average",[16]; average of 10 patients,126.0
CCCCC1C(=O)N(c2ccccc2)N(c2ccccc2)C1=O [phenylbutazone],"BSG after 1 h., average",[17]; average of 10 patients,33.2
same,"BSG after 2 h., average",[17]; average of 10 patients,57.9
same,BSG after 1 h.,[17]; individual patient,38 and 40 and 35 and 30 and 28 and 32 and 25
same,BSG after 2 h.,[17]; individual patient,62 and 60 and 50 and 45 and 58
